Common to all, as to type: in vivo
In experiment [1] the test system is mice with inflammation due to tumour take. Kind of experiment: Oncogenic pain model (murine melanoma cells into the hind leg), tail immersion in 55° C. water. The settings on record: two weeks of melanoma tumour development, intraperitoneal, 30 mg/kg. Here is the method: In an animal oncogenic pain model, in mice, inflammation was induced via the administration of about a million murine melanoma cells into the hind leg. After two days we observed increasing inflammation due to tumour take. After two weeks of tumour development we examined the effect of Tyrosyl-D-arginyl-phenylalanyl-phenylalanyl-lysyl-lysyl-prolyl-tyrosyl-isoleucyl-leucine against acute pain elicited by tail immersion in 55° C. water.

Experiment [2] relates to mice with inflammation. The experiment can be described thus: Tail immersion (55° C.) acute pain test in mice with Freund's adjuvant induced paw inflammation. As to conditions: one week after Freund's adjuvant into the paw, intravenous, 20 mg/kg. The protocol: Inflammation was induced in mice by administering Freund's adjuvant into the paw. Inflammation was observed within two days. After a week, we examined the analgesic activity of the peptide analogue Tyrosyl-D-lysyl-phenylalanyl-phenylalanyl-arginyl-arginyl-prolyl-tyrosyl-isoleucyl-leucine against acute pain elicited by immersion of the tail into 55° C.

Experiment [3] relates to rats. Kind of experiment: Analgesic activity against thermal pain after administration into the subarachnoid space via cannulae. As to conditions: subarachnoid cannula. The text has this:
Two weeks prior to the experiment, rats were implanted with cannulae into the subarachnoid space. On the day of the experiment we examined analgesic activity by administering the peptide Tyrosyl-D-lysyl-phenylalanyl-phenylalanyl-lysyl-lysyl-prolyl-tyrosyl-isoleucyl-leucine.

The structures appear in SMILES notation. Where a SMILES comes first, the peptide text is derived from it. [ ]: non-standard residue; d: D form.

In the case of `CC[C@H](C)[C@H](NC(=O)[C@H](Cc1ccc(O)cc1)NC(=O)[C@@H]1CCCN1C(=O)[C@H](CCCCN)NC(=O)[C@H](CCCCN)NC(=O)[C@H](Cc1ccccc1)NC(=O)[C@H](Cc1ccccc1)NC(=O)[C@@H](CCCNC(=N)N)NC(=O)[C@@H](N)Cc1ccc(O)cc1)C(=O)N[C@@H](CC(C)C)C(=O)O` [Tyrosyl-D-arginyl-phenylalanyl-phenylalanyl-lysyl-lysyl-prolyl-tyrosyl-isoleucyl-leucine] (H-Y[dR]FFKKPYIL-OH), the “effect against acute pain elicited by tail immersion in 55° C. water” value in experiment [1] is listed as “complete analgesis”. Consider `CC[C@H](C)[C@H](NC(=O)[C@H](Cc1ccc(O)cc1)NC(=O)[C@@H]1CCCN1C(=O)[C@H](CCCNC(=N)N)NC(=O)[C@H](CCCNC(=N)N)NC(=O)[C@H](Cc1ccccc1)NC(=O)[C@H](Cc1ccccc1)NC(=O)[C@@H](CCCCN)NC(=O)[C@@H](N)Cc1ccc(O)cc1)C(=O)N[C@@H](CC(C)C)C(=O)O` [Tyrosyl-D-lysyl-phenylalanyl-phenylalanyl-arginyl-arginyl-prolyl-tyrosyl-isoleucyl-leucine] (H-Y[dK]FFRRPYIL-OH), for which the “analgesic activity against acute pain elicited by immersion of the tail into 55° C.” value in experiment [2] was “complete analgesis”. In the case of `CC[C@H](C)[C@H](NC(=O)[C@H](Cc1ccc(O)cc1)NC(=O)[C@@H]1CCCN1C(=O)[C@H](CCCCN)NC(=O)[C@H](CCCCN)NC(=O)[C@H](Cc1ccccc1)NC(=O)[C@H](Cc1ccccc1)NC(=O)[C@@H](CCCCN)NC(=O)[C@@H](N)Cc1ccc(O)cc1)C(=O)N[C@@H](CC(C)C)C(=O)O` [Tyrosyl-D-lysyl-phenylalanyl-phenylalanyl-lysyl-lysyl-prolyl-tyrosyl-isoleucyl-leucine] (H-Y[dK]FFKKPYIL-OH), the “change of analgesic effect on repeated administration (tolerance)” value in experiment [3] (daily dose of 5 mg) is reported as “no changes in the extensive analgesic effect”. Besides, in experiment [3] (dose of 5 mg), the “analgesic activity against thermal pain” value is “complete analgesis” and the “duration of complete analgesis against thermal pain” value was found to be 1 h.

The values above are taken from patent US8551939B2, “Peptide analogues, particularly for the treatment of chronic pain” (Instytut Medycyny Doswiadczalnej I Klinicznej, priority 2008, dated 2013).
